Measurements as given in patent US20190041383A1, “METHOD FOR PREPARING SENESCENT MELANOCYTES, CELLS PREPARED BY METHOD, AND METHOD FOR SCREENING FOR SENESCENCE-ALLEVIATING MATERIAL BY USING CELLS” (AMOREPACIFIC CORPORATION, priority 2015, published 2019).

How the values were obtained:
Format in all cases: cell-based, human
[1] = system: melanocytes irradiated with UVB at 20 mJ/cm^2 two times (senescent pigmentation model); assay: melanin content in senescent melanocytes after treatment with whitening material; details: 30 μM, medium changed every 3 days (4 times) from 48 h after UVB, read after two weeks, vs vehicle (DMSO) control; p<0.05 (FIG. 5b)
Description: Human primary melanocytes (Life Technologies, CA, USA) were cultured in a 5% CO2 incubator at room temperature by using M-254 medium (Gibco BRL, NY, USA) supplemented with human melanocyte growth supplement (HMGS) (Gibco BRL, NY, USA), placed on a 100 mm culture dish so that the number of cells was 2×10^5, allowed to attach to the dish wall for the night, and irradiated with UVB at a strength of 11 mJ/cm^2, 20 mJ/cm^2, and 30 mJ/cm^2 two times at an interval of 24 hours. The melanocytes were irradiated with UVB at a strength of 11 mJ/cm^2, 20 mJ/cm^2, and 30 mJ/cm^2, respectively, two times, cultured for 2 weeks, detached from the culture dish and counted, and the same number of cells were collected in a microtube, disrupted by adding RIPA assay buffer (Millipore, 20-188) thereto, and subjected to the centrifugation at 13,500 rpm for 30 minutes to obtain a precipitate. The precipitate was dissolved in a 1N sodium hydroxide (NaOH) solution, and the colors were compared to one another (FIG. 4a), and the absorbance was measured at 450 nm to compare the content of melanin (FIG. 4b). […]

[2] = system: p16 and p21; assay: p16 and p21 mRNA expression (Q-PCR) in senescent melanocytes after treatment with whitening material; details: treated for 2 weeks from 48 h after final UVB irradiation, four times at an interval of 3 days; p<0.05 / p<0.01 (FIG. 6)
Description: Human primary melanocytes (Life Technologies, CA, USA) were cultured in a 5% CO2 incubator at room temperature by using M-254 medium (Gibco BRL, NY, USA) supplemented with human melanocyte growth supplement (HMGS) (Gibco BRL, NY, USA), placed on a 100 mm culture dish so that the number of cells was 2×10^5, allowed to attach to the dish wall for the night, and irradiated with UVB at a strength of 11 mJ/cm^2, 20 mJ/cm^2, and 30 mJ/cm^2 two times at an interval of 24 hours. cDNA was prepared by obtaining RNA from cells 2 weeks after being irradiated with UVB at a strength of 20 mJ/cm^2 two times at an interval of 24 hours, and a change in mRNA level was measured by Q-PCR (Applied biosystems, 7500 Fast) by using p16 and p21 specific primers. As the Q-PCR experiment, a cycle at 95° C. for 15 seconds and at 60° C. for 60 seconds was repeatedly conducted 40 times in total, and the relative value of an increase in gene expression as compared to that of a control group was measured.

[3] = system: melanocytes irradiated with UVB at 20 mJ/cm^2 two times (senescent melanocytes); assay: β-galactosidase activity in senescent melanocytes after treatment with whitening material; details: 30 μM, medium changed every 3 days (4 times) from 48 h after UVB, read after two weeks, vs vehicle (DMSO) control; p<0.05 (FIG. 5a)
Description: Human primary melanocytes (Life Technologies, CA, USA) were cultured in a 5% CO2 incubator at room temperature by using M-254 medium (Gibco BRL, NY, USA) supplemented with human melanocyte growth supplement (HMGS) (Gibco BRL, NY, USA), placed on a 100 mm culture dish so that the number of cells was 2×10^5, allowed to attach to the dish wall for the night, and irradiated with UVB at a strength of 11 mJ/cm^2, 20 mJ/cm^2, and 30 mJ/cm^2 two times at an interval of 24 hours.
After UVB irradiation under the conditions of Example 1, β-galactosidase activity, which is a representative senescence index of cell, has been measured and it has been confirmed that the activity increased in proportion to the strength of UVB irradiated (FIG. 3a).
The cells determined in the most proper senescent state through the above-described Examples, namely, the cells prepared by irradiating the melanocytes with UVB at a strength of 20 mJ/cm^2 two times at an interval of 24 hours were cultured from the 48th hour after the UV ray irradiation in a medium containing Material A (melasolv, 30 μM) of a representative whitening material while changing the medium at an interval of 3 days (4 times in total). After two weeks, the β-galactosidase activity and the melanin content were compared to those of a control group (vehicle (DMSO) treated) (FIG. 5). […]

COc1cc(/C=C/C(=O)Oc2cc(C)ccc2C(C)C)cc(OC)c1OC [Material A, melasolv]
melanin content [1]: significantly decreases to the level of that of the control group | increased gene expression (p16 and p21) [2]: significantly inhibited | β-galactosidase activity [3]: decreases
